Test results reported in patent publication US8642609B2, “Modulators of ATP-binding cassette transporters” (Vertex Pharmaceuticals Incorporated, priority 2003, dated 2014).

Molecular target: T1, ΔF508-CFTR (Homo sapiens, UniProt P13569, DEL508-508)
T1 construct: expressed in transfected cells
Experiment: Membrane potential optical assay (FRET/VIPR), identification of correction compounds
Format: cell-based
Conditions: for Emax: relative efficacy
Outline: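 Corrector screen: FRET voltage-sensor dyes (CC2-DMPE donor, DiSBAC2(3)) report Cl^− efflux-driven depolarization after 10 μM forskolin and 20 μM genistein in Cl^−-free medium. Beforehand, ΔF508-CFTR NIH3T3 fibroblasts received compound for 16 hrs at 37° C; temperature-corrected cells (27° C) served as positive control.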

T1 sequence (P13569 with tags, fused parts or gaps DEL508-508): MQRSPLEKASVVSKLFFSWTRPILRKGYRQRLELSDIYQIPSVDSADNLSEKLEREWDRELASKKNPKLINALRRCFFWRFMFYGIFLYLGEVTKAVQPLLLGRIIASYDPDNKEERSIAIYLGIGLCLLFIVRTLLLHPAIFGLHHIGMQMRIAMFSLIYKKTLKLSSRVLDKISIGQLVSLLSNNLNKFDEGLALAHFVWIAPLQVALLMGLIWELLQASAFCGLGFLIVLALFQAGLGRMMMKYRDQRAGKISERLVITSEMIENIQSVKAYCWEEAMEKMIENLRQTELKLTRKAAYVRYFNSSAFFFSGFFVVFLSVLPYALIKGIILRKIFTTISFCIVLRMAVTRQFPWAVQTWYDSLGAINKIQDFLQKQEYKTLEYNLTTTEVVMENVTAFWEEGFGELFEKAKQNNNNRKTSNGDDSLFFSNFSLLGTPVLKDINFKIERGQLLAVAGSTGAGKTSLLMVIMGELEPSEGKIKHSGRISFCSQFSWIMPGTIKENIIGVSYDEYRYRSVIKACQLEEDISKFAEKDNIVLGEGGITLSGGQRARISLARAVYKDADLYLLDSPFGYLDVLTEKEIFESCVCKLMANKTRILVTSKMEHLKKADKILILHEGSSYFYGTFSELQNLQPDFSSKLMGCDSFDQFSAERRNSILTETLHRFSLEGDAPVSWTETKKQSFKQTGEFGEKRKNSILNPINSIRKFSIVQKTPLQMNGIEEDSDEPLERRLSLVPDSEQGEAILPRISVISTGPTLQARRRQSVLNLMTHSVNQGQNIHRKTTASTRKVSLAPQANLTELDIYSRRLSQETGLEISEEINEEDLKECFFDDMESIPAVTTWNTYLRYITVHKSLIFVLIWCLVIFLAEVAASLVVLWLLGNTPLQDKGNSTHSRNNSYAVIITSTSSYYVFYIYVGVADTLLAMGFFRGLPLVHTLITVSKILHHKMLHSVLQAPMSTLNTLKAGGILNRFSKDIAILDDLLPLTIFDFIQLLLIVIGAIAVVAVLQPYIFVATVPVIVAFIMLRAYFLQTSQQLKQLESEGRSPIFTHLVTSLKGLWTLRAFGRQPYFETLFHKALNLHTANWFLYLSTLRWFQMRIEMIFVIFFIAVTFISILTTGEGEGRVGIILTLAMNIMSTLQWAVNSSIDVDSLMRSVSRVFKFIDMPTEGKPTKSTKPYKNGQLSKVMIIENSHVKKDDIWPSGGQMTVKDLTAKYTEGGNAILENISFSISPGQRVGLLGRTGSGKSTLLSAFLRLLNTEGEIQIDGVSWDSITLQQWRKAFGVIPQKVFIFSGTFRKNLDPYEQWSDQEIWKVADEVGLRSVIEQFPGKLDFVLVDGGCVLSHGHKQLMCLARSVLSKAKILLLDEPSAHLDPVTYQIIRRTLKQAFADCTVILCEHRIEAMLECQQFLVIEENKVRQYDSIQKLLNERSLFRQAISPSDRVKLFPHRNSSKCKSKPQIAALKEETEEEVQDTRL

SMILES	EC50	Emax
COCCn1c(C(C)N2CCN(S(=O)(=O)c3ccc(Br)cc3)CC2)nc2ccccc2c1=O (stereo not drawn) [compound 5]	< 10 µM	> 100%
CCn1c(C(C)N2CCN(S(=O)(=O)c3ccccc3)CC2)nc2ccc(Cl)cc2c1=O (stereo not drawn) [compound 37]	10 to 25 µM	25 to 100%
CC(c1nc2ccccc2c(=O)n1C)N1CCN(C(=O)Nc2ccccc2)CC1 (stereo not drawn) [compound 31]	10 to 25 µM	< 25%
CCCn1c(CN2CCN(S(=O)(=O)c3ccc(OC)cc3)CC2)nc2ccccc2c1=O [compound 150]	10 to 25 µM	25 to 100%
CC(c1nc2ccccc2c(=O)n1C)N1CC2CC1CN2S(=O)(=O)c1ccc(Br)cc1 (stereo not drawn) [compound 177]	25 to 60 µM	25 to 100%
CC(c1nc2ccccc2c(=O)[nH]1)N1CCN(S(=O)(=O)c2ccc(Cl)cc2)CC1 (stereo not drawn) [compound 131]	10 to 25 µM	< 25%
COc1ccc(S(=O)(=O)NCCN(C(C)c2nc3ccccc3c(=O)n2C)S(=O)(=O)c2ccc(OC)cc2)cc1 (stereo not drawn) [compound 197]	25 to 60 µM	25 to 100%
CCCn1c(C(C)N2CCN(S(=O)(=O)c3c(C)cc(C)cc3C)CC2)nc2ccccc2c1=O (stereo not drawn) [compound 21]	25 to 60 µM	25 to 100%
CC(NC[C@@H]1CCCCN1S(=O)(=O)c1ccc(Br)cc1)c1nc2ccccc2c(=O)n1C (stereo partly drawn) [compound 215]	25 to 60 µM	< 25%
CCN(CC)c1nc(C(C)N2CCN(S(=O)(=O)c3ccc(OC)cc3)CC2)nc2ccccc12 (stereo not drawn) [compound 195]	10 to 25 µM	25 to 100%
Cc1ccc(C(=O)N2CCN(C(C)c3nc4cc(Cl)ccc4c(=O)n3C)CC2)cc1 (stereo not drawn) [compound 120]	10 to 25 µM	< 25%
CC(NCCCNS(=O)(=O)c1ccc(Cl)cc1)c1nc2ccccc2c(=O)n1C (stereo not drawn) [compound 173]	25 to 60 µM	25 to 100%
CCc1nc(N(C)C)c2ccccc2n1 [compound 159]	25 to 60 µM	< 25%
COc1ccc(S(=O)(=O)N2CCC(NC(C)c3nc4ccccc4c(=O)n3C)CC2)cc1 (stereo not drawn) [compound 208]	25 to 60 µM	25 to 100%
COc1ccc(C(=O)N2CCN(C(C)c3nc4ccccc4c(=O)n3C)CC2)cc1 (stereo not drawn) [compound 81]	25 to 60 µM	< 25%
Cc1ccc(S(=O)(=O)N2CCN(C(C)c3nc4cccc(Cl)c4c(=O)n3C)CC2)cc1 (stereo not drawn) [compound 107]	10 to 25 µM	< 25%

SMILES	EC50	Emax
CC(c1nc2ccccc2c(=O)n1C)N1CCC(N)C1 (stereo not drawn) [compound 178]	25 to 60 µM	< 25%
CC(c1nc2ccccc2c(=O)n1C)N1CCN(S(C)(=O)=O)CC1 (stereo not drawn) [compound 79]	25 to 60 µM	< 25%
COc1ccc(S(=O)(=O)N2CCN(C(C)c3nc4cc(Cl)ccc4c(=O)n3C)CC2)cc1 (stereo not drawn) [compound 93]	< 10 µM	25 to 100%
Cc1ccc(NC(=O)N2CCN(C(C)c3nc4ccccc4c(=O)n3C)CC2)cc1 (stereo not drawn) [compound 56]	10 to 25 µM	< 25%
CC(c1nc2ccccc2c(=O)n1C)N(CCCNS(=O)(=O)c1ccc(Br)cc1)S(=O)(=O)c1ccc(Br)cc1 (stereo not drawn) [compound 207]	< 10 µM	25 to 100%
CC(c1nc2cc(Cl)ccc2c(=O)n1C)N1CCN(S(=O)(=O)c2cccc(Cl)c2)CC1 (stereo not drawn) [compound 97]	< 10 µM	25 to 100%
COc1ccc2nc(C(C)N3CCN(S(=O)(=O)c4ccccc4)CC3)n(C)c(=O)c2c1 (stereo not drawn) [compound 133]	10 to 25 µM	25 to 100%
Cc1ccccc1S(=O)(=O)N1CCN(C(C)c2nc3ccccc3c(=O)n2C)CC1 (stereo not drawn) [compound 69]	25 to 60 µM	25 to 100%
Cc1cccc(CC(=O)N2CCN(C(C)c3nc4cc(Cl)ccc4c(=O)n3C)CC2)c1 (stereo not drawn) [compound 113]	10 to 25 µM	< 25%
Cn1c(CN2CCN(S(=O)(=O)c3ccc(Cl)cc3)CC2)nc2ccc(Cl)cc2c1=O [compound 67]	10 to 25 µM	25 to 100%
CNCCNC(C)c1nc2ccccc2c(=O)n1C (stereo not drawn) [compound 182]	25 to 60 µM	< 25%
CCCn1c([C@@H](C)N2CCN(S(=O)(=O)c3ccc(Br)cc3)CC2)nc2ccccc2c1=O [compound 148]	< 10 µM	> 100%
CCCn1c(C(C)N2CCN(S(=O)(=O)c3ccc(Cl)cc3)CC2)nc2ccccc2c1=O (stereo not drawn) [compound 26]	< 10 µM	> 100%
Cc1cccc(S(=O)(=O)N2CCN(C(C)c3nc4ccc(Cl)cc4c(=O)n3C)CC2)c1 (stereo not drawn) [compound 85]	10 to 25 µM	25 to 100%
CCCn1c(C(C)N2CCN(S(=O)(=O)c3ccc(F)cc3)CC2)nc2ccccc2c1=O (stereo not drawn) [compound 28]	10 to 25 µM	25 to 100%

Results, then the molecule that gave them:

EC50	Emax	SMILES
25 to 60 µM	25 to 100%	COc1ccc(S(=O)(=O)N2CCN(C(C)c3ncc(C(N)=O)c(N4CCCCC4)n3)CC2)cc1 (stereo not drawn) [compound 356]
< 10 µM	> 100%	CCOC(=O)C1CCN(c2nc(C(C)N3CCN(S(=O)(=O)c4ccc(OC)cc4)CC3)nc3ccccc23)CC1 (stereo not drawn) [compound 322]
25 to 60 µM	< 25%	CC(c1nc2ccccc2c(=O)n1C)N1CCN(S(=O)(=O)c2ccc(-c3ccccc3)cc2)CC1 (stereo not drawn) [compound 242]
< 10 µM	> 100%	COc1ccc(S(=O)(=O)N2CCN(C(C)c3nc(N4CCCc5ccccc54)c4ccccc4n3)CC2)cc1 (stereo not drawn) [compound 388]
25 to 60 µM	< 25%	CCSc1ccc(S(=O)(=O)N2CCN(C(C)c3nc4ccccc4c(=O)n3C)CC2)cc1 (stereo not drawn) [compound 351]
25 to 60 µM	< 25%	CC(c1nc2ccccc2c(=O)n1C)N1CCN(S(=O)(=O)c2ccccc2C#N)CC1 (stereo not drawn) [compound 259]
25 to 60 µM	< 25%	CC(c1nc2ccccc2c(=O)n1C)N1CCN(S(=O)(=O)c2ccc(S(=O)(=O)c3ccccc3)s2)CC1 (stereo not drawn) [compound 265]
10 to 25 µM	> 100%	CCC(c1nc2ccccc2c(=O)n1C)N1CCN(S(=O)(=O)c2ccc(OC)cc2)CC1 (stereo not drawn) [compound 337]
25 to 60 µM	< 25%	CC(c1nc2ccccc2c(=O)n1C)N1CCN(S(=O)(=O)N(C)C)CC1 (stereo not drawn) [compound 292]
25 to 60 µM	25 to 100%	CC(=O)NCCn1c(C(C)N2CCN(S(=O)(=O)c3ccc(Cl)cc3)CC2)nc2ccccc2c1=O (stereo not drawn) [compound 289]
25 to 60 µM	25 to 100%	COc1ccc(S(=O)(=O)N2CCN(C(C)c3nc(N4CC[C@H](O)C4)c4ccccc4n3)CC2)cc1 (stereo partly drawn) [compound 318]
< 10 µM	> 100%	COc1ccc(S(=O)(=O)N2CCC(C(C)c3nc(OC4CCCCC4)c4ccccc4n3)CC2)cc1 (stereo not drawn) [compound 404]
25 to 60 µM	25 to 100%	CC(NC1CCN(S(=O)(=O)c2ccc(Br)cc2)C1)c1nc2ccccc2c(=O)n1C (stereo not drawn) [compound 226]
10 to 25 µM	> 100%	COc1ccc(S(=O)(=O)N2CCN(C(C)c3nc(N4CCC5(CC4)OCCCO5)c4ccccc4n3)CC2)cc1 (stereo not drawn) [compound 328]
< 10 µM	> 100%	COc1ccc(S(=O)(=O)N2CCN(C(C)c3nc4ccccc4c(=O)n3CC(C)C)CC2)cc1 (stereo not drawn) [compound 331]
< 10 µM	25 to 100%	COc1ccc(S(=O)(=O)N2CCN(C(C)c3nc(Nc4ccccc4)c4ccccc4n3)CC2)cc1 (stereo not drawn) [compound 366]

EC50	Emax	SMILES
25 to 60 µM	25 to 100%	CC(c1nc2ccccc2c(=O)n1C)N1CCN(S(=O)(=O)c2ccc(-c3cc(C(F)(F)F)on3)s2)CC1 (stereo not drawn) [compound 261]
25 to 60 µM	25 to 100%	COc1ccc(S(=O)(=O)N2CCN(C(C)c3nc(OCCN(C)C)c4ccccc4n3)CC2)cc1 (stereo not drawn) [compound 301]
25 to 60 µM	< 25%	COc1ccc(S(=O)(=O)N2CCN(C(C)c3nc(N4CCC(C(=O)O)CC4)c4ccccc4n3)CC2)cc1 (stereo not drawn) [compound 370]
< 10 µM	> 100%	COc1ccc(S(=O)(=O)N2CCN(C(C)c3nc(OC4CCC4)c4ccccc4n3)CC2)cc1 (stereo not drawn) [compound 398]
25 to 60 µM	25 to 100%	COc1ccc(S(=O)(=O)N2CCN(C(C)c3nc(N4CCN(C)CC4)c4ccccc4n3)CC2)cc1 (stereo not drawn) [compound 345]
25 to 60 µM	25 to 100%	CC(c1nc2ccccc2c(=O)n1C)N1CCN(S(=O)(=O)c2ccc(C#N)cc2)CC1 (stereo not drawn) [compound 250]
25 to 60 µM	25 to 100%	CNC(=O)c1cnc(C(C)N2CCN(S(=O)(=O)c3ccc(OC)cc3)CC2)nc1N1CCCCC1 (stereo not drawn) [compound 357]
25 to 60 µM	< 25%	COc1ccc(S(=O)(=O)N2CCN(C(=O)c3nc(N4CCCCC4)c4ccccc4n3)CC2)cc1 [compound 402]
25 to 60 µM	< 25%	CC(c1nc2ccccc2c(=O)n1C)N1CCN(S(=O)(=O)c2ccc(-c3cc(C(F)(F)F)n(C)n3)s2)CC1 (stereo not drawn) [compound 275]
< 10 µM	25 to 100%	COc1ccc(S(=O)(=O)N2CCN(C(C)c3nc(N4CCCCC4C)c4ccccc4n3)CC2)cc1 (stereo not drawn) [compound 326]
10 to 25 µM	> 100%	COc1ccc(S(=O)(=O)N2CCN(C(C)c3nc(N4CCSC4)c4ccccc4n3)CC2)cc1 (stereo not drawn) [compound 393]
10 to 25 µM	> 100%	COc1ccc(S(=O)(=O)N2CCN(C(C)c3nc(N4CCC(CCO)CC4)c4ccccc4n3)CC2)cc1 (stereo not drawn) [compound 363]
< 10 µM	> 100%	CCOC(=O)c1cnc(C(C)N2CCN(S(=O)(=O)c3ccc(OC)cc3)CC2)nc1OC1CCCC1 (stereo not drawn) [compound 362]
25 to 60 µM	25 to 100%	COc1cc2nc(C(C)N3CCN(S(=O)(=O)c4ccc(Br)cc4)CC3)n(C)c(=O)c2cc1OC (stereo not drawn) [compound 284]
< 10 µM	> 100%	CC(c1nc(OC2CCCC2)c2ccccc2n1)N1CCN(S(=O)(=O)c2ccc(Br)cc2)CC1 (stereo not drawn) [compound 218]
25 to 60 µM	< 25%	CC(c1nc2ccccc2c(=O)n1C)N1CCN(S(=O)(=O)c2ccc(Oc3ccccc3)cc2)CC1 (stereo not drawn) [compound 255]
